According to patent publication US20180008587A1, “THIOHYDANTOIN ANDROGEN RECEPTOR ANTAGONISTS FOR THE TREATMENT OF CANCER” (Jaressen Pharmaceutica NV, priority 2016, published 2018):
Residue numbers refer to the chain shown, from its start. Where two headings read alike, the source gives them in different places.

Experiments:
Assay type in all cases: cell-based
[1] = target: T1, F876L mutant Androgen Receptor (AR-F876L) (Homo sapiens, UniProt P10275, F877L); experiment: LNCaP-AR-F876L AG reporter assay (ARE firefly luciferase, agonist mode); details: for Emax: read-out: LNCaP-AR-F876L AG MAX % Stim
T1 construct: expressed in transfected cells; host or cells: LNCaP (LNCaP F876L)
T1 sequence (P10275 1-920 F877L): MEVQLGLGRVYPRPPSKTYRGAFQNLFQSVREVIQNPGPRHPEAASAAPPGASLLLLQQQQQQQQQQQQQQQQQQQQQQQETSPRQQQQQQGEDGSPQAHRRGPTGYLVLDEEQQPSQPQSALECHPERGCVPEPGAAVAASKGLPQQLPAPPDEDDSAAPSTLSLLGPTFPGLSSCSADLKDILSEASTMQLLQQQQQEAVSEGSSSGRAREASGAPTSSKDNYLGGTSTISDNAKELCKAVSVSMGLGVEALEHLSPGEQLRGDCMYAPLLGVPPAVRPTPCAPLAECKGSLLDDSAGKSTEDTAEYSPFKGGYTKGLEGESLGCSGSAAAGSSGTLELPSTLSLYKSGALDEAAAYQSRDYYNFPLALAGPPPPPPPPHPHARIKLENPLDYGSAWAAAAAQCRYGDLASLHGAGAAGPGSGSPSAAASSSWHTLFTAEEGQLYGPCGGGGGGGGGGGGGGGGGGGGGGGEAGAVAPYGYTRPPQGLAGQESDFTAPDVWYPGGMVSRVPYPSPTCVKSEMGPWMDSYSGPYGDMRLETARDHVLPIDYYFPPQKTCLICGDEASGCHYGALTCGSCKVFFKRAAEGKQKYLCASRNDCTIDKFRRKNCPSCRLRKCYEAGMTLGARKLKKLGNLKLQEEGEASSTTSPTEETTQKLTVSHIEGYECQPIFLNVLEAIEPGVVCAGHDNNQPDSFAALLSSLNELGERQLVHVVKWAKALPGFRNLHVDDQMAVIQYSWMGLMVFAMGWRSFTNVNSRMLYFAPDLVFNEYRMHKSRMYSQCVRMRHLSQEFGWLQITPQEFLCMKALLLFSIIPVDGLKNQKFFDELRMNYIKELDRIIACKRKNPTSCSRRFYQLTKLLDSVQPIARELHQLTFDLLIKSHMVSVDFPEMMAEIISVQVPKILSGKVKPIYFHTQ
Summary of the method: (§1)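 Read-out is luciferase luminescence taken 1 h after Steady-Glo addition, following 20-24 h compound exposure at 37 °C in LNCaP pools stably carrying wild-type or F876L AR. Cells were grown in charcoal-stripped serum. Antagonist wells received agonist at 400 pM (WT) or 600 pM (F876L).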

[2] = target: T2, wild-type Androgen Receptor (AR-wt) (Homo sapiens, UniProt P10275); experiment: LNCaP-AR-wt AG reporter assay (ARE firefly luciferase, agonist mode); details: for Emax: read-out: LNCaP-AR-wt AG MAX % Stim
T2 construct: expressed in transfected cells; host or cells: LNCaP (LNCaP AR (cs))
T2 sequence (P10275 1-920): T1 sequence (P10275 1-920 F877L) with L877F
Summary of the method: as §1

[3] = target: T2, wild-type Androgen Receptor (AR-wt); experiment: LNCaP-AR-wt ANT reporter assay (ARE firefly luciferase, antagonist mode); details: for IC50: antagonist mode, 400 pM R-1881 challenge, −Log10(IC50 [Molar]), read-out: LNCaP-AR-wt ANT pIC50 (converted); for Emax: read-out: LNCaP-AR-wt ANT MAX % Inh
Summary of the method: (§2)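 LNCaP stable pooled lines expressing ARE-firefly luciferase, in charcoal-stripped serum medium, were exposed to compounds; antagonist mode used agonist at 400 pM (WT) or 600 pM (F876L).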

[4] = target: T1, F876L mutant Androgen Receptor (AR-F876L); experiment: LNCaP-AR-F876L ANT reporter assay (ARE firefly luciferase, antagonist mode); details: for Emax: read-out: LNCaP-AR-F876L ANT MAX % Inh; for IC50: read-out: LNCaP-AR-F876L ANT pIC50 (converted)
Summary of the method: as §2

[5] = agonist mode, −Log10(EC50 [Molar]), read-out: LNCaP-AR-F876L AG pEC50 (converted)
[6] = maximum % stimulation (agonist response) over tested concentration range
[7] = agonist mode, −Log10(EC50 [Molar]), read-out: LNCaP-AR-wt AG pEC50 (converted)
[8] = maximum % inhibition of R1881 control response over tested concentration range

Row | SMILES | EC50 [1] | Emax [1] | EC50 [2] | Emax [2] | IC50 [3] | Emax [3] | Emax [4] | IC50 [4] | EC50 [1, 5] | Emax [1, 6] | EC50 [2, 7] | Emax [2, 6] | Emax [3, 8] | Emax [4, 8]
1 | N#Cc1ncc(N2C(=O)C3(CCC3)N(c3ccc(C(=O)NCc4ccccc4Cl)c(F)c3)C2=S)cc1C(F)(F)F [Cpd 31, N-[(2-chlorophenyl)methyl]-4-[6-[6-cyano-5-(trifluoromethyl)-3-pyridyl]-5-oxo-7-thioxo-6,8-diazaspiro[3.4]octan-8-yl]-2-fluoro-benzamide] | > 15100 nM | 0.3% | > 15100 nM | 0.2% | 2240 nM | 98.6% | 91% | 2240 nM | – | – | – | – | – | –
2 | CCCCNC(=O)c1ccc(N2C(=S)N(c3cnc(C#N)c(C(F)(F)F)c3)C(=O)C23CCC3)cc1F [Cpd 58, N-butyl-4-[6-[6-cyano-5-(trifluoromethyl)-3-pyridyl]-5-oxo-7-thioxo-6,8-diazaspiro[3.4]octan-8-yl]-2-fluoro-benzamide] | – | – | – | – | 245 nM | – | – | 204 nM | > 15100 nM | 0.6% | > 15100 nM | 0.1% | 102% | 98.2%
3 | N#Cc1ccc(N2C(=S)N(c3cnc(C#N)c(C(F)(F)F)c3)C(=O)C23CCC3)cc1 [Cpd 120, 5-[8-(4-cyanophenyl)-5-oxo-7-thioxo-6,8-diazaspiro[3.4]octan-6-yl]-3-(trifluoromethyl)pyridine-2-carbonitrile] | – | – | – | – | 363 nM | – | – | 224 nM | > 15100 nM | 3.9% | > 15100 nM | 1.2% | 100% | 98.8%
4 | N#Cc1ncc(N2C(=O)C3(CCC3)N(c3ccc(C(=O)Nc4ccccc4)c(F)c3)C2=S)cc1C(F)(F)F [Cpd 73, 4-[6-[6-cyano-5-(trifluoromethyl)-3-pyridyl]-5-oxo-7-thioxo-6,8-diazaspiro[3.4]octan-8-yl]-2-fluoro-N-phenyl-benzamide] | – | – | – | – | 759 nM | – | – | 417 nM | > 15100 nM | 0.6% | > 15100 nM | 1.9% | 99.5% | 99.1%
5 | N#Cc1ncc(N2C(=O)C3(CCC3)N(c3ccc(C(=O)NCc4ccc(Cl)cc4)c(F)c3)C2=S)cc1C(F)(F)F [Cpd 53, N-[(4-chlorophenyl)methyl]-4-[6-[6-cyano-5-(trifluoromethyl)-3-pyridyl]-5-oxo-7-thioxo-6,8-diazaspiro[3.4]octan-8-yl]-2-fluoro-benzamide] | – | – | – | – | 912 nM | – | – | 646 nM | > 15100 nM | 0.5% | > 15100 nM | 1% | 97% | 96.7%
6 | COCCNC(=O)c1ccc(N2C(=S)N(c3cnc(C#N)c(C(F)(F)F)c3)C(=O)C23CCC3)cc1F [Cpd 46, 4-[6-[6-cyano-5-(trifluoromethyl)-3-pyridyl]-5-oxo-7-thioxo-6,8-diazaspiro[3.4]octan-8-yl]-2-fluoro-N-(2-methoxyethyl)benzamide] | > 15100 nM | 0.2% | > 15100 nM | -0.1% | 891 nM | 99.9% | 98.3% | 631 nM | – | – | – | – | – | –
7 | CN1CCC(Oc2ccc(N3C(=S)N(c4cnc(C#N)c(C(F)(F)F)c4)C(=O)C34CCC4)cc2F)CC1 [Cpd 28, 5-[8-[3-fluoro-4-[(1-methyl-4-piperidyl)oxy]phenyl]-5-oxo-7-thioxo-6,8-diazaspiro[3.4]octan-6-yl]-3-(trifluoromethyl)pyridine-2-carbonitrile] | > 15100 nM | 0% | > 15100 nM | -0.1% | 501 nM | 99.6% | 100% | 204 nM | – | – | – | – | – | –
8 | CC(C)(O)CNC(=O)c1ccc(N2C(=S)N(c3cnc(C#N)c(C(F)(F)F)c3)C(=O)C23CCC3)cc1F [Cpd 17, 4-[6-[6-cyano-5-(trifluoromethyl)-3-pyridyl]-5-oxo-7-thioxo-6,8-diazaspiro[3.4]octan-8-yl]-2-fluoro-N-(2-hydroxy-2-methyl-propyl)benzamide] | > 15100 nM | 0.1% | > 15100 nM | -0.1% | 2690 nM | 95.5% | 97.2% | 1100 nM | – | – | – | – | – | –
9 | Cc1cc(N2C(=O)C3(CCC3)N(c3ccc(C(=O)Nc4cncc(F)c4)c(F)c3)C2=S)cnc1C#N [Cpd 113, 4-[6-(6-cyano-5-methyl-3-pyridyl)-5-oxo-7-thioxo-6,8-diazaspiro[3.4]octan-8-yl]-2-fluoro-N-(5-fluoro-3-pyridyl)benzamide] | – | – | – | – | 1170 nM | – | – | 871 nM | > 15100 nM | 3.1% | > 15100 nM | 25.3% | 97.4% | 98.2%
10 | N#Cc1ncc(N2C(=O)C3(CCC3)N(c3ccc(C(=O)NCCCN4CCCC4=O)c(F)c3)C2=S)cc1C(F)(F)F [Cpd 37, 4-[6-[6-cyano-5-(trifluoromethyl)-3-pyridyl]-5-oxo-7-thioxo-6,8-diazaspiro[3.4]octan-8-yl]-2-fluoro-N-[3-(2-oxopyrrolidin-1-yl)propyl]benzamide] | – | – | – | – | 1200 nM | – | – | 398 nM | > 15100 nM | 0.3% | > 15100 nM | 0.3% | 99.3% | 96.5%
11 | Cc1cc(N2C(=O)C3(CCC3)N(c3ccc(C(=O)Nc4ccc(Cl)cc4)c(F)c3)C2=S)cnc1C#N [Cpd 74, N-(4-chlorophenyl)-4-[6-(6-cyano-5-methyl-3-pyridyl)-5-oxo-7-thioxo-6,8-diazaspiro[3.4]octan-8-yl]-2-fluoro-benzamide] | – | – | – | – | 1150 nM | – | – | 759 nM | > 15100 nM | 1% | > 15100 nM | 0.6% | 94.1% | 93.8%
